Source: PubChem BioAssay AID246 (DTP/NCI, 2004)
Values joined by “and” are separate entries in the source; they are usually repeats but may differ in a detail not shown here. Identical values can stand only once. Toxic doses and inconclusive results are not listed.

System: BDF1 mice, P1081 chloroleukemia ip, survival T/C
Assay: NCI In Vivo Anticancer Drug Screen. Data for tumor model P1081 Chloroleukemia (intraperitoneal) in B6D2F1 (BDF1) mice
Conditions: endpoint: mean survival time, higher = longer survival
Method: The antitumor activity of compounds was measured in mice bearing transplantable tumors. Survival or tumor size were measured and the results are expressed as the measurement made in the treated group (T) divided by the measurement made in the vehicle treated control group (C). The tumor model used in this assay is P1081 Chloroleukemia (intraperitoneal) in B6D2F1 (BDF1) mice

[1] = dose: 2.5 mg/kg/injection, schedule: Q01DX Z (ip), vehicle: carboxymethylcellulose (CMC)
[2] = dose: 62.5 mg/kg/injection, schedule: Q01DX010 (ip), vehicle: saline
[3] = dose: 125.0 mg/kg/injection, schedule: Q01DX010 (ip), vehicle: saline
[4] = dose: 125.0 mg/kg/injection, schedule: Q01DX Z (ip), vehicle: carboxymethylcellulose (CMC)
[5] = dose: 250.0 mg/kg/injection, schedule: Q01DX010 (ip), vehicle: saline
[6] = dose: 250.0 mg/kg/injection, schedule: Q01DX Z (ip), vehicle: carboxymethylcellulose (CMC)
[7] = dose: 500.0 mg/kg/injection, schedule: Q01DX010 (ip), vehicle: saline
[8] = dose: 500.0 mg/kg/injection, schedule: Q01DX Z (ip), vehicle: carboxymethylcellulose (CMC)
[9] = dose: 0.63 mg/kg/injection, schedule: Q01DX Z (ip), vehicle: carboxymethylcellulose (CMC)
[10] = dose: 5.0 mg/kg/injection, schedule: Q01DX Z (ip), vehicle: carboxymethylcellulose (CMC)
[11] = dose: 9.4 mg/kg/injection, schedule: Q01DX Z (ip), vehicle: carboxymethylcellulose (CMC)
[12] = dose: 16.0 mg/kg/injection, schedule: Q01DX010 (ip), vehicle: saline
[13] = dose: 32.0 mg/kg/injection, schedule: Q01DX010 (ip), vehicle: saline
[14] = dose: 64.0 mg/kg/injection, schedule: Q01DX010 (ip), vehicle: saline
[15] = dose: 8.0 mg/kg/injection, schedule: Q01DX010 (ip), vehicle: saline

In the case of Nc1ncnc2[nH]ncc12, the T/C (dose: 0.78 mg/kg/injection, schedule: Q01DX Z (ip), vehicle: carboxymethylcellulose (CMC)) is reported as 94 % of control, the T/C (dose: 1.5 mg/kg/injection, schedule: Q01DX010 (ip), vehicle: saline) is reported as 111 % of control and the T/C (dose: 1.56 mg/kg/injection, schedule: Q01DX Z (ip), vehicle: carboxymethylcellulose (CMC)) is reported as 103 % of control. For the same molecule, the T/C (dose: 3.0 mg/kg/injection, schedule: Q01DX010 (ip), vehicle: saline) was 116 % of control and 100 % of control, the T/C (dose: 3.12 mg/kg/injection, schedule: Q01DX Z (ip), vehicle: carboxymethylcellulose (CMC)) was 112 % of control and the T/C (dose: 6.0 mg/kg/injection, schedule: Q01DX010 (ip), vehicle: saline) was 111 % of control and 105 % of control. For the same molecule, the T/C (dose: 6.25 mg/kg/injection, schedule: Q01DX Z (ip), vehicle: carboxymethylcellulose (CMC)) was 94 % of control and the T/C (dose: 12.0 mg/kg/injection, schedule: Q01DX010 (ip), vehicle: saline) was 88 % of control and 105 % of control.

For O=C(Nc1ccc(C2=NCCCN2)cc1)c1ccc(NC(=O)c2ccc(C3=NCCCN3)cc2)cc1, the T/C (dose: 1.95 mg/kg/injection, schedule: Q01DX Z (ip), vehicle: water) was 123 % of control, the T/C (dose: 3.9 mg/kg/injection, schedule: Q01DX Z (ip), vehicle: carboxymethylcellulose (CMC)) was 157 % of control and the T/C (dose: 3.9 mg/kg/injection, schedule: Q01DX Z (ip), vehicle: water) was 193 % of control. For the same molecule, the T/C (dose: 7.8 mg/kg/injection, schedule: Q01DX Z (ip), vehicle: water) was 202 % of control, the T/C (dose: 15.6 mg/kg/injection, schedule: Q01DX Z (ip), vehicle: carboxymethylcellulose (CMC)) was 92 % of control and the T/C (dose: 15.6 mg/kg/injection, schedule: Q01DX Z (ip), vehicle: water) was 86 % of control.

With OCC1OC(n2cnc3c(Cl)ncnc32)C(O)C1O (centres undefined) the T/C [1] was 103 % of control, the T/C [2] was 95 % of control and the T/C (dose: 62.5 mg/kg/injection, schedule: Q01DX Z (ip), vehicle: carboxymethylcellulose (CMC)) was 95 % of control. The T/C [3] was 90 % of control, the T/C [4] was 91 % of control and the T/C [5] was 100 % of control. The T/C [6] was 118 % of control and 95 % of control, the T/C [7] was 100 % of control and the T/C [8] was 98 % of control and 104 % of control.

In the case of CC(=O)[C@H]1CC[C@H]2[C@@H]3C[C@H](C)C4=CC(=O)CC[C@]4(C)[C@H]3C(=O)C[C@]12C, the T/C (dose: 6.3 mg/kg/injection, schedule: Q01DX Z (sc), vehicle: steriod suspending solution) is reported as 121 % of control, the T/C (dose: 12.5 mg/kg/injection, schedule: Q01DX Z (sc), vehicle: steriod suspending solution) is reported as 110 % of control and the T/C (dose: 25.0 mg/kg/injection, schedule: Q01DX Z (sc), vehicle: steriod suspending solution) is reported as 110 % of control. The T/C (dose: 50.0 mg/kg/injection, schedule: Q01DX Z (sc), vehicle: steriod suspending solution) was 101 % of control, the T/C (dose: 100.0 mg/kg/injection, schedule: Q01DX Z (sc), vehicle: steriod suspending solution) was 98 % of control and the T/C (dose: 200.0 mg/kg/injection, schedule: Q01DX Z (sc), vehicle: steriod suspending solution) was 105 % of control and 94 % of control.

With O=NN(CCCl)C(=O)NCCCl the T/C (dose: 1.0 mg/kg/injection, schedule: Q01DX Z (ip), vehicle: saline) was 95 % of control, the T/C (dose: 2.0 mg/kg/injection, schedule: Q01DX Z (ip), vehicle: saline) was 112 % of control and 96 % of control and the T/C (dose: 3.13 mg/kg/injection, schedule: Q01DX010 (ip), vehicle: saline) was 220 % of control. The T/C (dose: 4.0 mg/kg/injection, schedule: Q01DX Z (ip), vehicle: saline) was 114 % of control and 116 % of control, the T/C (dose: 6.25 mg/kg/injection, schedule: Q01DX010 (ip), vehicle: saline) was 290 % of control and 300 % of control and the T/C (dose: 8.0 mg/kg/injection, schedule: Q01DX Z (ip), vehicle: saline) was 118 % of control. For the same molecule, the T/C (dose: 12.5 mg/kg/injection, schedule: Q01DX010 (ip), vehicle: saline) was 150 % of control and the T/C (dose: 16.0 mg/kg/injection, schedule: Q01DX Z (ip), vehicle: saline) was 92 % of control.

COC12C(COC(N)=O)C3=C(C(=O)C(C)=C(N)C3=O)N1CC1C2N1C (centres undefined) was tested, and the T/C [9] was 123 % of control, the T/C (dose: 1.25 mg/kg/injection, schedule: Q01DX Z (ip), vehicle: carboxymethylcellulose (CMC)) was 107 % of control and the T/C [1] was 112 % of control. For the same molecule, the T/C [10] was 152 % of control.

In the case of O=C(Nc1ccc(C2=NCCN2)cc1)c1cccc(C(=O)Nc2ccc(C3=NCCN3)cc2)c1, the T/C (dose: 2.35 mg/kg/injection, schedule: Q01DX Z (ip), vehicle: water) is reported as 106 % of control, the T/C (dose: 4.7 mg/kg/injection, schedule: Q01DX Z (ip), vehicle: water) is reported as 96 % of control and the T/C [11] is reported as 152 % of control. For the same molecule, the T/C [12] was 300 % of control and 333 % of control, the T/C (dose: 18.8 mg/kg/injection, schedule: Q01DX Z (ip), vehicle: carboxymethylcellulose (CMC)) was 175 % of control and the T/C [13] was 300 % of control and 333 % of control. For the same molecule, the T/C (dose: 37.5 mg/kg/injection, schedule: Q01DX Z (ip), vehicle: carboxymethylcellulose (CMC)) was 206 % of control, the T/C [14] was 294 % of control and 300 % of control and the T/C (dose: 75.0 mg/kg/injection, schedule: Q01DX Z (ip), vehicle: carboxymethylcellulose (CMC)) was 209 % of control. The T/C (dose: 128.0 mg/kg/injection, schedule: Q01DX010 (ip), vehicle: saline) was 200 % of control and the T/C (dose: 150.0 mg/kg/injection, schedule: Q01DX Z (ip), vehicle: water) was 100 % of control.

Nc1nc(SCc2ccccc2)c2[nH]cnc2n1 was tested, and the T/C (dose: 4.7 mg/kg/injection, schedule: Q01DX Z (ip), vehicle: carboxymethylcellulose (CMC)) was 91 % of control, the T/C [15] was 110 % of control and 116 % of control and the T/C [11] was 90 % of control. The T/C [12] was 116 % of control and 105 % of control, the T/C (dose: 18.75 mg/kg/injection, schedule: Q01DX Z (ip), vehicle: carboxymethylcellulose (CMC)) was 100 % of control and the T/C [13] was 110 % of control and 122 % of control. For the same molecule, the T/C [14] was 105 % of control.

C[C@@H]1C[C@H]2CC[C@H](O2)[C@H](C)C(=O)O[C@@H](C)C[C@@H]2CC[C@@H](O2)[C@@H](C)C(=O)O[C@H](C)C[C@H]2CC[C@H](O2)[C@H](C)C(=O)O[C@@H](C)C[C@@H]2CC[C@@H](O2)[C@@H](C)C(=O)O1 was tested, and the T/C (dose: 25.0 mg/kg/injection, schedule: Q01DX Z (ip), vehicle: carboxymethylcellulose (CMC)) was 107 % of control, the T/C (dose: 50.0 mg/kg/injection, schedule: Q01DX Z (ip), vehicle: carboxymethylcellulose (CMC)) was 109 % of control and the T/C (dose: 100.0 mg/kg/injection, schedule: Q01DX Z (ip), vehicle: carboxymethylcellulose (CMC)) was 100 % of control. The T/C (dose: 200.0 mg/kg/injection, schedule: Q01DX Z (ip), vehicle: carboxymethylcellulose (CMC)) was 93 % of control.

With CN(C)/N=N/c1nc[nH]c1C(N)=O the T/C (dose: 25.0 mg/kg/injection, schedule: Q01DX010 (ip), vehicle: saline) was 120 % of control, the T/C (dose: 50.0 mg/kg/injection, schedule: Q01DX010 (ip), vehicle: saline) was 120 % of control and the T/C (dose: 100.0 mg/kg/injection, schedule: Q01DX010 (ip), vehicle: saline) was 160 % of control and 177 % of control. For the same molecule, the T/C (dose: 200.0 mg/kg/injection, schedule: Q01DX010 (ip), vehicle: saline) was 122 % of control.

For O=c1cn[nH]c(=O)[nH]1, the T/C (dose: 4.0 mg/kg/injection, schedule: Q01DX Z (ip), vehicle: carboxymethylcellulose (CMC)) was 102 % of control, the T/C (dose: 8.0 mg/kg/injection, schedule: Q01DX Z (ip), vehicle: carboxymethylcellulose (CMC)) was 93 % of control and the T/C [2] was 95 % of control. For the same molecule, the T/C [3] was 95 % of control, the T/C [4] was 123 % of control and 94 % of control and the T/C [5] was 90 % of control and 95 % of control. For the same molecule, the T/C [6] was 117 % of control, the T/C [7] was 110 % of control and 100 % of control and the T/C [8] was 117 % of control. The T/C (dose: 1000.0 mg/kg/injection, schedule: Q01DX Z (ip), vehicle: carboxymethylcellulose (CMC)) was 97 % of control.

For Nc1nc(=S)c2ncn(C3OC(CO)C(O)C3O)c2[nH]1 (centres undefined), the T/C (dose: 0.31 mg/kg/injection, schedule: Q01DX Z (ip), vehicle: carboxymethylcellulose (CMC)) was 117 % of control, the T/C [9] was 115 % of control and the T/C [1] was 158 % of control. For the same molecule, the T/C [10] was 95 % of control, the T/C [15] was 95 % of control and the T/C [12] was 90 % of control. The T/C (dose: 20.0 mg/kg/injection, schedule: Q01DX Z (ip), vehicle: carboxymethylcellulose (CMC)) was 90 % of control.
